From patent US10966943B2, “Methods and compositions for treatment of asthma or parkinson's disease” (InnoPharmaScreen Inc., priority 2018, dated 2021)
Entries after “also recorded” stand apart in the source; their conditions may differ.

How the values were obtained:
IL-6 = assay: ELISA of IL-6 in A549 cells induced by LPS or IL-1beta; assay type: cell-based, human; conditions: dose-dependent
Experimental: (§1) A549 cells (1×10^5/well) were seeded on a 96-well plate for 16 hrs. After starvation for 24 hrs., the cells were pretreated with LPS or IL-1beta for 4 hrs. The cells were then treated with IPS-07004 for 24 hrs. in a dose-dependent manner. Cytokines levels (IL-6 and IL-8) in media were analyzed in accordance with the manufacturer's specification (BD Biosciences Pharmingen, San Diego, Calif., USA).
(§2) To assess whether IPS-07004 inhibits the expression of IL-6 and IL-8, which play a critical role in asthma pathology, ELISA of the cytokines in A549 cells was employed.

IL-8 = assay: ELISA of IL-8 in A549 cells induced by LPS or IL-1beta; assay type: cell-based, human; conditions: dose-dependent
Experimental: as §1, §2

human Caspase-1 = biological target: T1, human Caspase-1 (Homo sapiens, UniProt P29466); assay: Caspase-1 activity in HMC-1 cell-based assay; conditions: HMC-1 cells; FIG. 7, FIG. 9
T1 construct: endogenous in cells; host or cells: HMC-1 (human mast cell line)
T1 sequence (P29466 120-404): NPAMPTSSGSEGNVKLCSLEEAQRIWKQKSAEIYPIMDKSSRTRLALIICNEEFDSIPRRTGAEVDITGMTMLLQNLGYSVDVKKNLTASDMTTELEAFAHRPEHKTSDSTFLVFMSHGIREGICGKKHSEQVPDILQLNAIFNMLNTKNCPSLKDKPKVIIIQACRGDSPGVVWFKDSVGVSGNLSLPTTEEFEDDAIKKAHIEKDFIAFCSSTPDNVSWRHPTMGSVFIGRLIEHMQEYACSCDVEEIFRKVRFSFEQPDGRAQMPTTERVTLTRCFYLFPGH
From the text: Using HMC-1 (human mast cell line) cell-based assay, IPS-07005 ((IPS-07004+Montelukast) inhibited the activity of Caspase-1, a critical component of inflammasome, to suppress the conversion of Pro-TSLP, IL-1beta, and -IL-18 to active forms as shown in FIG. 9.

MPTP-injected mice = assay: MPTP-induced Parkinson's disease mice (pole test, TH, IL-1b); assay type: in vivo
Experimental: For 1-methyl-4-phenyl-1,2,3,6-tetrahydropyridine (MPTP) intoxication, the mice received four intraperitoneal (i.p.) injections of MPTP-HCl (20 mg/kg, free base in saline; Sigma-Aldrich, St. Louis, Mo.) dissolved in PBS at 2 h intervals. Twelve hours after the last MPTP injection, the MPTP-injected mice were received IPS-07004, Montelukast, or IPS-07005 once daily through p.o. administrations.
To examine the effect of IPS-07004 on abnormal behavior of PD mice, Pole test (T-turn and T-LA time) was carried out. PD was induced in mice treated with MPTP (20 mg/kg, I.P) and the mice were administered with IPS-07004 at a dose of 10 mg/kg. And then pole test was performed in the mice. which can measure bradykinesia, a hallmark of Parkinson's disease. The T-turn measures the time the black mouse turns down from the top of the pole. IPS-07004 reduced the T-turn and T-LA time compared with MPTP-treated control group and L-Dopa-treated group, as shown in FIG. 18.

[1] = Mast cell number and serum IgE level; assay type: in vivo; conditions: FIG. 8
[2] = test system: TSLP (Thymic Stromal Lymphopoietin); assay: TSLP expression in DNCB mice; assay type: in vivo; conditions: DNCB (2,4-dinitrochlorobenzene) mice; FIG. 7
[3] = test system: TSLP (Thymic Stromal Lymphopoietin); assay: TSLP expression in HMC-1 cells; assay type: cell-based, human; conditions: FIG. 7
[4] = test system: A549 lung carcinoma cells; assay: In vitro cell viability assay (MTT); assay type: cell-based, human; conditions: IPS-07004 for 24 hrs, FIG. 1
Experimental: A549 lung carcinoma cells (1×10^3/well) were seeded on a 96-well plate for 16 hrs. After starvation for 24 hrs., the cells were pretreated with LPS or IL-1b for 4 hrs. The cells were then treated with IPS-07004 for 24 hrs. in a dose-dependent manner. After 48 hrs. of incubation, MTT [3-(4,5-dimethylthiazol-2-yl)-2,5-diphenyl-tetrazolium bromide] solution (5 mg/ml) was added to each well in an amount of 1/10 of total volume, and the cells were incubated for 2 hrs. at 37° C.
To examine the survival rate for A549 cells treated with IPS-07004, an in vitro cell viability assay was performed using MTT.

OVA-challenged mice = assay: OVA-induced asthma in mice (BAL fluid, IgE, lung histology); assay type: in vivo
Experimental: 25 mg Ovalbumin (OVA) and 1 mg aluminum hydroxide hydrate (AlOH3) were dissolved in […] of sterile saline solution and sensitized by intraperitoneal administration at 0 and 21 days. At the end of the observation period, all living animals were anesthetized using Isoflurane, and blood was collected from the vena cava/abdominal aorta. Lungs are removed and washed with sterile saline solution. […] of sterile saline was filled in a 1 mL syringe, and the injection and recovery were repeated three times. The washed solution was lightly centrifuged (300 rpm, 10 minutes) and the supernatant was frozen and used for analysis of CXCL1 (ab216951, Abcam PLC) IL-17A (ab199081, Abcam PLC) and CCL3 (ab100726, Abcam PLC). The precipitate was resuspended in the same amount of sterile saline solution and used for eosinophil count and total cell count. The collected blood was left at room temperature for 30 minutes and centrifuged at 3,000 rpm for 20 mins. to separate serum and used for total IgE and Ova-specific IgE analysis. Histopathological examination was performed using lung tissue fixed in formalin. Lung tissues extracted at autopsy were placed in a cassette and submerged in 10% Neutral buffered formalin (10% NBF) at least 20 times the tissue volume. After fixation, the tissue was cut to about 4 mm in thickness and fabricated into paraffin blocks after general tissue treatment and embedding. […]

[5] = A549 cells induced by LPS, FIG. 2
[6] = MPTP (20 mg/kg, I.P) mice, 10 mg/kg, compared with MPTP-treated control group and L-Dopa-treated group, FIG. 18

Row | Compound | expression level of IL-6 (IL-6; A549 cells induced by IL-1beta) | expression level of IL-6 (IL-6; [5]) | expression level of IL-8 (IL-8; A549 cells induced by IL-1beta) | expression level of IL-8 (IL-8; [5]) | Caspase-1 activity (human Caspase-1) | Pole test T-LA time (MPTP-injected mice; [6]) | Pole test T-turn time (MPTP-injected mice; [6]) | tyrosine hydroxylase (TH) level in striatum and Substantia nigra (immunohistochemistry) (MPTP-injected mice; PD mice brain, compared with MPTP-treated control group and L-Dopa-treated group, FIG. 19) | IL-1b expression in PD brain (MPTP-injected mice; PD mice, FIG. 20) | mast cell number [1] | serum IgE level [1] | TSLP expression [2] | TSLP expression [3] | viability of A549 cells (MTT) ([4]; cells induced by IL-1beta) | viability of A549 cells (MTT) ([4]; cells induced by LPS) | eosinophil number in BALF (OVA-challenged mice; compared with the OVA-challenged group, FIGS. 13B, 13C) | number of goblet cells (PAS staining of lung sections) (OVA-challenged mice; high dose of Montelukast, versus OVA-challenged group, FIGS. 15A and 15B)
1 | [H]/N=C(\N/C(=N/[H])Nc1ccc(Cl)cc1)NC(C)C [IPS-07004, proguanil] | reduced | reduced | reduced | reduced | inhibitory effect; also recorded: inhibited | reduced | reduced | decreased | reduced | inhibitory effect | inhibitory effect | inhibitory effect | inhibitory effect | little or no effect | little or no effect | decreased | –
2 | CC(C)(O)c1ccccc1CC[C@@H](SCC1(CC(=O)O)CC1)c1cccc(/C=C/c2ccc3ccc(Cl)cc3n2)c1 [Montelukast, montelukast] | – | – | – | – | – | – | – | – | – | – | – | – | – | – | – | – | significantly lower
